Results reported in patent US4755511A, “Tricyclic pyridazinone compounds” (Smith Kline & French Laboratories Limited, priority 1984, dated 1988).

Tests used:
[1] = Curran et al, J. Med. Chem. 1974, p 273; cited from earlier work
[2] = system: left ventricular dp/dt max; test: Cardiac stimulant activity in vivo in anaesthetised cats (left ventricular dp/dt max, i.v.); design: species or system cat; key to Relative Duration: ***: Long; **: medium; *: short; settings: for ED50: Felis catus, read-out: ED50 (dose to increase left ventricular dp/dt max by 50%), intravenous, anaesthetised cats pretreated with ganglion blocker (mecamylamine or pempidine) and propranolol; for Relative Duration: estimated in the anaesthetised cats following i.v. administration
ventricular strips = test: Cardiac stimulant activity in vitro: force of contraction of electrically stimulated guinea pig right ventricular strips; settings: Cavia porcellus; 50% increase in force of contraction; 0.5 Hz stimulation, Krebs Henseleit solution, 37° C.
Protocol: The compounds of formula (I) and their pharmaceutically acceptable salts are tested for cardiac stimulant activity following a procedure based on that of S. […]. Pharm & Exp. Therapeutics, 200, 352-362 (1977)). Guinea pigs (500-700 g) of either sex are sacrificed and the hearts are quickly removed and transferred to a dissecting dish containing oxygenated bathing fluid. While in the bathing medium, the right ventricle is cut into two strips. The strips are each suspended in a 75 ml bath containing Krebs Henseleit solution at 37° C. and the bath is bubbled with 95% oxygen and 5% carbon dioxide. The ventricular strips are electrically stimulated at a frequency of 0.5 Hz, at double the threshold voltage. A resting tension of 1.0 g is applied to the strips and the tension is kept constant by readjustment during an equilibration period of 60 minutes. The bathing fluid is frequently changed during this period. When a steady base line is obtained, a compound under test is added to the bathing fluid and a cumulative concentration response curve is plotted. […] In the above test method the compounds of the Examples gave the following data : […]

EC50 (ventricular strips) | SMILES | hypotensive activity [1] | ED50 [2] | Relative Duration [2]
 | COc1ccc2c(c1)CCC1CC(=O)NN=C21 (stereo not drawn) [8-Methoxy-4,4a,5,6-tetrahydrobenzo[h]cinnolin-3[2H]-one] | not showing any hypotensive activity |  | 
14 µM | Nc1ccc2c(c1)CC1CC(=O)NN=C21 (stereo not drawn) [Example 1, 7-Amino-4,4a-dihydro-[5H]-indeno[1,2-c]pyridazin-3[2H]-one] |  | 1.8 µmol/kg | **
27 µM | CC12CC(=O)NN=C1c1ccc(C(N)=O)cc1C2 (stereo not drawn) [Example 3, 7-Carboxamido-4,4a-dihydro-4a-methyl-[5H]-indeno[1,2-C]-pyridazin-3[2H]-one] |  | 0.4 µmol/kg | *
21 µM | COc1ccc2c(c1)CC1(C)CC(=O)NN=C21 (stereo not drawn) [Example 7, 4,4a-Dihydro-7-methoxy-4a-methyl-[5H]-indeno[1,2-c]-pyridazin-3[2H]-one] |  | 1.4 µmol/kg | **
23 µM | COc1ccc2c(c1)CCC1(C)CC(=O)NN=C21 (stereo not drawn) [Example 10, 8-Methoxy-4a-methyl-4,4a,5,6-tetrahydrobenzo[h]cinnolin-3[2H]-one] |  | 0.2 µmol/kg | *
22 µM | CN=C(NC#N)Nc1ccc2c(c1)CCC1CC(=O)NN=C21 (stereo not drawn) [Example 15, 8-(N^2 -Methyl-N^3-cyanoguanidino)-4,4a,5,6-tetrahydrobenzo-[h]cinnolin-3[2H]-one] |  | 1.2 µmol/kg | **
 | NC(=O)c1ccc2c(c1)CCC1CC(=O)NN=C21 (stereo not drawn) [Example 17, 8-Carboxamido-4,4a,5,6-tetrahydrobenzo[h]cinnolin-3[2H]-one] |  | 1.2 µmol/kg | **
 | CC12CCc3cc(C(N)=O)ccc3C1=NNC(=O)C2 (stereo not drawn) [Example 19, 8-Carboxamido-4a-methyl-4,4a,5,6-tetrahydrobenzo[h]cinnolin-3[2H]-one] |  | 1.6 µmol/kg | **
 | COc1ccc2c(c1)CCc1cc(=O)[nH]nc1-2 [dehydro analogue, 5,6-Dihydro-8-methoxybenzo[h]cinnolin-3[2H]-one] | not showing any hypotensive activity |  | 
